pEC50: −log10 of the molar value. Activity calls are given as the source filed them. The rule behind the calls is not given here.
Legend:
Type in all cases: cell-based
[1] = target: T1, Glucagon-like peptide 2 receptor (Homo sapiens) (UniProt O95838); test: Potency index, ratio of compound EC50 to compound 2 EC50 for human GLP2R expressed in HEK293 cells
T1 sequence (whole entry): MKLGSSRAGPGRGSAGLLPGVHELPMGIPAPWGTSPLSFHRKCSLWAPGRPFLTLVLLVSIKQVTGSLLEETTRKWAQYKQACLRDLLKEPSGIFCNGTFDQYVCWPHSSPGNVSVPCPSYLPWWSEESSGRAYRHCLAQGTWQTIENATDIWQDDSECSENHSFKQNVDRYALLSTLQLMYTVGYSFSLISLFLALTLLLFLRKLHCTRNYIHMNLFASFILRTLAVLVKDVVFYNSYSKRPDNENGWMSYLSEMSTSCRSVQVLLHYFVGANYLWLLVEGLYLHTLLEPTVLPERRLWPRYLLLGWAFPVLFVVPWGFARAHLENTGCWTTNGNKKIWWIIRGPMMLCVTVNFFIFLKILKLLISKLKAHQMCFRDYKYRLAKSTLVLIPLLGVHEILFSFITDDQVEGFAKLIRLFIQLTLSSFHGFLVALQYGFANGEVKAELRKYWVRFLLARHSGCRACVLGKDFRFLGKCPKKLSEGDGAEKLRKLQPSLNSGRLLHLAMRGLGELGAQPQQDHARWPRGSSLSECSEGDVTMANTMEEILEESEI

[2] = target: Glucagon receptor (Homo sapiens) (UniProt P47871); test: Agonist activity at human GCGR expressed in HEK293 cells after 5 hrs by luciferase reporter gene assay
Sequence of Glucagon receptor (Homo sapiens) (P47871 whole entry): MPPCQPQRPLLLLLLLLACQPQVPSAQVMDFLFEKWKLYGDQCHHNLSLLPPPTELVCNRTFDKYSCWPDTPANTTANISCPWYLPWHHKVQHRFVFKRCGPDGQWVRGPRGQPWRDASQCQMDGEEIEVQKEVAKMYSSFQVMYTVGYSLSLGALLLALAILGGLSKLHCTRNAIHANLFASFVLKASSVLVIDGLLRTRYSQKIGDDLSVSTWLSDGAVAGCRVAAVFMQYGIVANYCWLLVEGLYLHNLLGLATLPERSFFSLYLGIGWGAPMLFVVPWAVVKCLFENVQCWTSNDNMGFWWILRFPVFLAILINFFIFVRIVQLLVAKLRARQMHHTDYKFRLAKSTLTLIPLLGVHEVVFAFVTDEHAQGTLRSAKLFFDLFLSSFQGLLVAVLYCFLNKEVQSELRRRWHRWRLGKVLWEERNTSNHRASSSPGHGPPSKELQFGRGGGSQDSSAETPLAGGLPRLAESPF

[3] = target: Glucagon-like peptide 1 receptor (Homo sapiens, UniProt P43220); test: Agonist activity at human GLP1R expressed in HEK293 cells after 5 hrs by luciferase reporter gene assay
Sequence of Glucagon-like peptide 1 receptor (P43220 whole entry): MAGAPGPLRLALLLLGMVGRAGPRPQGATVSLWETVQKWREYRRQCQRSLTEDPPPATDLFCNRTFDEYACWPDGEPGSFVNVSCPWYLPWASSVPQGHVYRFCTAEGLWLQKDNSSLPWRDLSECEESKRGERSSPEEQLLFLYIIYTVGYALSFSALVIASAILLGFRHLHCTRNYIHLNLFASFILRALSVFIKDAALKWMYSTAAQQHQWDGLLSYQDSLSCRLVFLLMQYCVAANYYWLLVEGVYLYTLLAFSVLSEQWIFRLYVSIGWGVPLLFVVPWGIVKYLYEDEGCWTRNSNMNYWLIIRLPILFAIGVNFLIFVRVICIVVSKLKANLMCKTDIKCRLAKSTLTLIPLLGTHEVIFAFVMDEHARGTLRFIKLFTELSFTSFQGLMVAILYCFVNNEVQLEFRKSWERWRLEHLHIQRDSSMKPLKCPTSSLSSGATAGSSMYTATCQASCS

[4] = target: T2, Glucagon-like peptide 2 receptor (Homo sapiens, UniProt O95838); test: Agonist activity at human GLP2R expressed in HEK293 cells after 5 hrs by luciferase reporter gene assay
T2 sequence (O95838 whole entry): T1 sequence (whole entry)

HEK293 = test: Selectivity ratio of EC50 for human GLP1R expressed in HEK293 cells to EC50 for human GLP2R expressed in HEK293

For `CCCCC(NC(=O)[C@H](CCC(=O)O)NC(=O)[C@H](CC(=O)O)NC(=O)[C@H](CO)NC(=O)[C@H](Cc1ccccc1)NC(=O)[C@H](CO)NC(=O)CNC(=O)[C@H](CC(=O)O)NC(=O)CNC(=O)[C@@H](N)Cc1cnc[nH]1)C(=O)N[C@H](CC(N)=O)C(=O)N[C@H](C(=O)N[C@H](C(=O)N[C@@H](CC(C)C)C(=O)N[C@@H](CC(=O)O)C(=O)N[C@@H](CC(N)=O)C(=O)N[C@@H](CC(C)C)C(=O)N[C@@H](C)C(=O)N[C@@H](C)C(=O)N[C@@H](CCCNC(=N)N)C(=O)N[C@@H](CC(=O)O)C(=O)N[C@@H](Cc1ccccc1)C(=O)N[C@H](C(=O)N[C@@H](CC(N)=O)C(=O)N[C@@H](Cc1c[nH]c2ccccc12)C(=O)N[C@@H](CC(C)C)C(=O)N[C@H](C(=O)N[C@@H](CCC(N)=O)C(=O)N[C@H](C(=O)N[C@@H](CCCCN)C(N)=O)[C@@H](C)O)[C@@H](C)CC)[C@@H](C)CC)[C@@H](C)CC)[C@@H](C)O` (stereo not given in full), the Ratio EC50 [1] was 0.73, the Activity [2] was “inactive” and the pEC50 [3] was less than 6.00. For the same compound, the pEC50 [4] was 9.80 and the Ratio EC50 (HEK293) was greater than 6200.
For `CCCCC(NC(=O)[C@H](CCC(=O)O)NC(=O)[C@H](CC(=O)O)NC(=O)[C@H](CO)NC(=O)[C@H](Cc1ccccc1)NC(=O)[C@H](CO)NC(=O)CNC(=O)[C@H](CC(=O)O)NC(=O)CNC(=O)[C@@H](N)Cc1cnc[nH]1)C(=O)N[C@@H](CC(N)=O)C(=O)N[C@H](C(=O)N[C@H](C(=O)N[C@@H](CC(C)C)C(=O)N[C@@H](CC(=O)O)C(=O)N[C@@H](CC(N)=O)C(=O)N[C@H](CC(C)C)C(=O)N[C@@H](C)C(=O)N[C@@H](C)C(=O)N[C@@H](CCCNC(=N)N)C(=O)N[C@@H](CC(=O)O)C(=O)N[C@@H](Cc1ccccc1)C(=O)N[C@H](C(=O)N[C@@H](CC(N)=O)C(=O)N[C@@H](Cc1c[nH]c2ccccc12)C(=O)N[C@@H](CC(C)C)C(=O)N[C@H](C(=O)N[C@@H](CCC(N)=O)C(=O)N[C@H](C(=O)N[C@@H](CCCCN)C(N)=O)[C@@H](C)O)[C@@H](C)CC)[C@@H](C)CC)[C@@H](C)CC)[C@@H](C)O` (stereo not given in full), the Ratio EC50 [1] was 12, the Activity [2] was “inactive” and the pEC50 [3] was less than 6.00. For the same compound, the pEC50 [4] was 8.59 and the Ratio EC50 (HEK293) was greater than 380.
In the case of `CCCCC(NC(=O)[C@H](CCC(=O)O)NC(=O)[C@H](CC(=O)O)NC(=O)[C@H](CO)NC(=O)[C@H](Cc1ccccc1)NC(=O)[C@@H](CO)NC(=O)CNC(=O)[C@H](CC(=O)O)NC(=O)CNC(=O)[C@@H](N)Cc1cnc[nH]1)C(=O)N[C@@H](CC(N)=O)C(=O)N[C@H](C(=O)N[C@H](C(=O)N[C@@H](CC(C)C)C(=O)N[C@@H](CC(=O)O)C(=O)N[C@@H](CC(N)=O)C(=O)N[C@@H](CC(C)C)C(=O)N[C@@H](C)C(=O)N[C@@H](C)C(=O)N[C@@H](CCCNC(=N)N)C(=O)N[C@@H](CC(=O)O)C(=O)N[C@@H](Cc1ccccc1)C(=O)N[C@H](C(=O)N[C@@H](CC(N)=O)C(=O)N[C@@H](Cc1c[nH]c2ccccc12)C(=O)N[C@@H](CC(C)C)C(=O)N[C@H](C(=O)N[C@@H](CCC(N)=O)C(=O)N[C@H](C(=O)N[C@@H](CCCCN)C(N)=O)[C@@H](C)O)[C@@H](C)CC)[C@@H](C)CC)[C@@H](C)CC)[C@@H](C)O` (stereo not given in full), the Ratio EC50 [1] was 37, the Activity [2] was “inactive” and the pEC50 [3] was less than 6.00. For the same compound, the pEC50 [4] was 8.09 and the Ratio EC50 (HEK293) was greater than 120.
With `CCCCC(NC(=O)[C@H](CCC(=O)O)NC(=O)[C@H](CC(=O)O)NC(=O)[C@H](CO)NC(=O)[C@H](Cc1ccccc1)NC(=O)[C@H](CO)NC(=O)CNC(=O)[C@H](CC(=O)O)NC(=O)CNC(=O)[C@@H](N)Cc1cnc[nH]1)C(=O)N[C@@H](CC(N)=O)C(=O)N[C@H](C(=O)N[C@H](C(=O)N[C@@H](CC(C)C)C(=O)N[C@@H](CC(=O)O)C(=O)N[C@@H](CC(N)=O)C(=O)N[C@@H](CC(C)C)C(=O)N[C@H](C)C(=O)N[C@@H](C)C(=O)N[C@@H](CCCNC(=N)N)C(=O)N[C@@H](CC(=O)O)C(=O)N[C@@H](Cc1ccccc1)C(=O)N[C@H](C(=O)N[C@@H](CC(N)=O)C(=O)N[C@@H](Cc1c[nH]c2ccccc12)C(=O)N[C@@H](CC(C)C)C(=O)N[C@H](C(=O)N[C@@H](CCC(N)=O)C(=O)N[C@H](C(=O)N[C@@H](CCCCN)C(N)=O)[C@@H](C)O)[C@@H](C)CC)[C@@H](C)CC)[C@@H](C)CC)[C@@H](C)O` (stereo not given in full) the Ratio EC50 [1] was 20, the Activity [2] was “inactive” and the pEC50 [3] was less than 6.00. For the same compound, the pEC50 [4] was 8.35 and the Ratio EC50 (HEK293) was greater than 220.
`CCCCC(NC(=O)[C@H](CCC(=O)O)NC(=O)[C@H](CC(=O)O)NC(=O)[C@H](CO)NC(=O)[C@H](Cc1ccccc1)NC(=O)[C@H](CO)NC(=O)CNC(=O)[C@H](CC(=O)O)NC(=O)CNC(=O)[C@@H](N)Cc1cnc[nH]1)C(=O)N[C@@H](CC(N)=O)C(=O)N[C@H](C(=O)N[C@@H](C(=O)N[C@@H](CC(C)C)C(=O)N[C@@H](CC(=O)O)C(=O)N[C@@H](CC(N)=O)C(=O)N[C@@H](CC(C)C)C(=O)N[C@@H](C)C(=O)N[C@@H](C)C(=O)N[C@@H](CCCNC(=N)N)C(=O)N[C@@H](CC(=O)O)C(=O)N[C@@H](Cc1ccccc1)C(=O)N[C@H](C(=O)N[C@@H](CC(N)=O)C(=O)N[C@@H](Cc1c[nH]c2ccccc12)C(=O)N[C@@H](CC(C)C)C(=O)N[C@H](C(=O)N[C@@H](CCC(N)=O)C(=O)N[C@H](C(=O)N[C@@H](CCCCN)C(N)=O)[C@@H](C)O)[C@@H](C)CC)[C@@H](C)CC)[C@H](C)CC)[C@@H](C)O` (stereo not given in full) was tested, and the Ratio EC50 [1] was 1.6, the Activity [2] was “inactive” and the pEC50 [3] was less than 6.00. The pEC50 [4] was 9.46 and the Ratio EC50 (HEK293) was greater than 2800.
With `CCCCC(NC(=O)[C@H](CCC(=O)O)NC(=O)[C@H](CC(=O)O)NC(=O)[C@H](CO)NC(=O)[C@H](Cc1ccccc1)NC(=O)[C@H](CO)NC(=O)CNC(=O)[C@H](CC(=O)O)NC(=O)CNC(=O)[C@@H](N)Cc1cnc[nH]1)C(=O)N[C@@H](CC(N)=O)C(=O)N[C@H](C(=O)N[C@H](C(=O)N[C@@H](CC(C)C)C(=O)N[C@@H](CC(=O)O)C(=O)N[C@@H](CC(N)=O)C(=O)N[C@@H](CC(C)C)C(=O)N[C@@H](C)C(=O)N[C@@H](C)C(=O)N[C@@H](CCCNC(=N)N)C(=O)N[C@@H](CC(=O)O)C(=O)N[C@@H](Cc1ccccc1)C(=O)N[C@H](C(=O)N[C@H](CC(N)=O)C(=O)N[C@@H](Cc1c[nH]c2ccccc12)C(=O)N[C@@H](CC(C)C)C(=O)N[C@H](C(=O)N[C@@H](CCC(N)=O)C(=O)N[C@H](C(=O)N[C@@H](CCCCN)C(N)=O)[C@@H](C)O)[C@@H](C)CC)[C@@H](C)CC)[C@@H](C)CC)[C@@H](C)O` (stereo not given in full) the Ratio EC50 [1] was 2, the Activity [2] was “inactive” and the pEC50 [3] was less than 6.00. It also gave a pEC50 [4] of 9.37 and a Ratio EC50 (HEK293) greater than 2300.
`CCCCC(NC(=O)[C@H](CCC(=O)O)NC(=O)[C@H](CC(=O)O)NC(=O)[C@H](CO)NC(=O)[C@H](Cc1ccccc1)NC(=O)[C@H](CO)NC(=O)CNC(=O)[C@H](CC(=O)O)NC(=O)CNC(=O)[C@@H](N)Cc1cnc[nH]1)C(=O)N[C@@H](CC(N)=O)C(=O)N[C@H](C(=O)N[C@H](C(=O)N[C@@H](CC(C)C)C(=O)N[C@@H](CC(=O)O)C(=O)N[C@H](CC(N)=O)C(=O)N[C@@H](CC(C)C)C(=O)N[C@@H](C)C(=O)N[C@@H](C)C(=O)N[C@@H](CCCNC(=N)N)C(=O)N[C@@H](CC(=O)O)C(=O)N[C@@H](Cc1ccccc1)C(=O)N[C@H](C(=O)N[C@@H](CC(N)=O)C(=O)N[C@@H](Cc1c[nH]c2ccccc12)C(=O)N[C@@H](CC(C)C)C(=O)N[C@H](C(=O)N[C@@H](CCC(N)=O)C(=O)N[C@H](C(=O)N[C@@H](CCCCN)C(N)=O)[C@@H](C)O)[C@@H](C)CC)[C@@H](C)CC)[C@@H](C)CC)[C@@H](C)O` (stereo not given in full) was tested, and the Ratio EC50 [1] was 6.8, the Activity [2] was “inactive” and the pEC50 [3] was less than 6.00. The pEC50 [4] was 8.82 and the Ratio EC50 (HEK293) was greater than 660.
`CCCCC(NC(=O)[C@H](CCC(=O)O)NC(=O)[C@H](CC(=O)O)NC(=O)[C@H](CO)NC(=O)[C@H](Cc1ccccc1)NC(=O)[C@H](CO)NC(=O)CNC(=O)[C@H](CC(=O)O)NC(=O)CNC(=O)[C@@H](N)Cc1cnc[nH]1)C(=O)N[C@@H](CC(N)=O)C(=O)N[C@H](C(=O)N[C@H](C(=O)N[C@@H](CC(C)C)C(=O)N[C@@H](CC(=O)O)C(=O)N[C@@H](CC(N)=O)C(=O)N[C@@H](CC(C)C)C(=O)N[C@@H](C)C(=O)N[C@@H](C)C(=O)N[C@H](CCCNC(=N)N)C(=O)N[C@@H](CC(=O)O)C(=O)N[C@@H](Cc1ccccc1)C(=O)N[C@H](C(=O)N[C@@H](CC(N)=O)C(=O)N[C@@H](Cc1c[nH]c2ccccc12)C(=O)N[C@@H](CC(C)C)C(=O)N[C@H](C(=O)N[C@@H](CCC(N)=O)C(=O)N[C@H](C(=O)N[C@@H](CCCCN)C(N)=O)[C@@H](C)O)[C@@H](C)CC)[C@@H](C)CC)[C@@H](C)CC)[C@@H](C)O` (stereo not given in full) was tested, and the Ratio EC50 [1] was 10, the Activity [2] was “inactive” and the pEC50 [3] was less than 6.00. For the same compound, the pEC50 [4] was 8.66 and the Ratio EC50 (HEK293) was greater than 450.
